# Key:
# Cavendish banana plants = experiment: Field trial: growth and development of banana plants after metam sodium soil injection at 30 cm and 60 cm; assay type: in vivo, Cavendish banana (Musa)
# Experimental: The analyses described in this example were carried out in the Philippines in a field in which Musa trees (specifically bananas) were to be planted, in the spring (beginning in March). Final determinations were carried out in September of the same year.
# (§1) Metam Sodium Application. Metam sodium 510 SL (equivalent to 42% w/w) was applied to soil at the following doses: 0 liters per hectare (L/ha), 750 L/ha, 1500 L/ha, 2250 L/ha, 3000 L/ha.
# (§2) Prior to injection, soil was prepared using a rototiller to break the soil structure from 0 cm to 80 cm deep, allowing for the smooth and even injection application by an injection machine. The soil was then leveled and made uniform, and the metam sodium was applied at two depths: 30 cm and 60 cm, using injection methods. The temperature was at a minimum of 10 QC and soil humidity was between 50 and 60% holding capacity, allowing the applied product to transform from metam sodium (liquid) to MITC (gas).
# (§3) The application was made using an injection machine wherein the machine lowered shanks and began moving forward such that the shanks lowered to a depth of 60 cm and injectors applied the metam sodium into the soil. When the injection at 60 cm was complete, the process was repeated for the entire field at 30 cm. The treated soil in the field was then sealed using a packer roller (which was part of the injection machinery, located at the back end of the machine), after each application.
# Plant Selection and Transplantation. Cavendish banana plants were used for this investigation. In order to avoid plants already contaminated by other soil, all plants were produced in vitro using art-recognized methods. Plants were transplanted into the field 14 days after the final soil reading was taken (21 days after treatment).
# Data Gathering. Data were gathered at monthly intervals beginning three months after banana plants were transplanted. A total of three data collection sessions were conducted. Data including the number of leaves, plant height, and girth size were collected.
# [1] = tested on: F. oxysporum f. sp. cubense; experiment: Panama disease analysis of soil samples after metam sodium soil injection; assay type: in vivo, Fusarium oxysporum f. sp. cubense Tropical Race 4; conditions: any of the treated groups (750-3000 L/ha); any day post application
# Experimental: as §1, §2, §3
# Soil Analysis. Soil samples were obtained at 20, 40, and 60 cm before application and every 24 hours beginning 48 hours after application, for seven days.
# Plant Pathology Analysis. […]
# Foc TR4 chlamydospores = experiment: Efficacy of metam sodium on Foc TR4 chlamydospores in vitro (colony growth on PDA plates); assay type: cell-based, Fusarium oxysporum f. sp. cubense Tropical Race 4
# Experimental: Foc TR4 chlamydospores were extracted from infested soil and incubated with a dilution series of metam sodium for 5 min and 60 min at room temperature. Thereafter, the samples were diluted 10× to get reduction of the treatment and sufficient dilution of chlamydospores to avoid lack of resolution when grown on plate. Aliquots of 100 μl were plated on PDA plates in duplicate and incubated for 3 days at 25° C. Plates were photographed and scored.
# [2] = 750 L/ha, six months after treatment
# [3] = 1500 L/ha, six months after treatment
# [4] = 2250 L/ha, six months after treatment
# [5] = 3000 L/ha, six months after treatment
smiles,measurement,setting,value
"CNC(=S)[S-].[Na+] [metam sodium, sodium N-methyldithiocarbamate]",effect on average girth size of banana plant,Cavendish banana plants; 750 L/ha,~1 cm
same,increase in average height of banana plant,Cavendish banana plants; 750 L/ha,~5 cm
same,effect on plants reaching bagging stage,Cavendish banana plants; [2],did not have a meaningful effect
same,percent of plants at either shooting or bagging stage,Cavendish banana plants; [2],11%
same,percent of plants at shooting stage,Cavendish banana plants; [2],9%
same,increase in average girth size of banana plant,Cavendish banana plants; 1500-3000 L/ha,4-6 cm
same,increase in average height of banana plant,Cavendish banana plants; 1500-3000 L/ha,20-23 cm
same,percent of plants at either shooting or bagging stage,Cavendish banana plants; [3],28%
same,percent of plants at shooting stage,Cavendish banana plants; [3],10%
same,percent of plants at bagging stage,"Cavendish banana plants; 1500 to 3000 L/ha, six months after treatment",11-19%
same,percent of plants at either shooting or bagging stage,Cavendish banana plants; [4],27%
same,percent of plants at shooting stage,Cavendish banana plants; [4],17%
same,percent of plants at either shooting or bagging stage,Cavendish banana plants; [5],35%
same,percent of plants at shooting stage,Cavendish banana plants; [5],22%
same,increase of average number of leaves per banana plant,"Cavendish banana plants; regardless of dose applied (750-3000 L/ha), versus 0 L/ha",roughly 1.5 fold
same,Foc TR4 detection in soil,[1],No Foc TR4 was detected
same,effect of prolonged incubation on number of surviving chlamydospores (growing colonies),"Foc TR4 chlamydospores; 100× dilution, 60 min versus 5 min",more effective in reducing the number of surviving chlamydospores
same,efficacy on Foc TR4 colony growth,"Foc TR4 chlamydospores; dilution of 10×, incubation time 5 minutes",effective
same,efficacy on Foc TR4 colony growth,"Foc TR4 chlamydospores; dilution of 100×, 5 and 60 minutes",less effective
same,reduction in viability of Foc TR4 chlamydospores (colony growth),"Foc TR4 chlamydospores; first test, dilutions from 1000 up to 10×10^6-fold, 60 min",No significant reduction in viability
same,efficacy against Foc TR4 chlamydospores,"Foc TR4 chlamydospores; in vitro conditions, dependent on high concentrations",effective against Foc TR4 chlamydospores
same,efficacy on surviving chlamydospores,"Foc TR4 chlamydospores; second test, 10× and 100× dilutions",(partially) effective
same,number of chlamydospores that survived,"Foc TR4 chlamydospores; second test, dilutions of 1000× and more",did not affect the number of chlamydospores that survived
